Test results taken from ChEMBL document CHEMBL3045245, “Synthesis and antitumor activities of certain novel 2-amino-9-(4-halostyryl)-4H-pyrano[3,2-h]quinoline derivatives” (Med Chem Res, 2012).
Converted amounts (≈) assume the structure as drawn.

How the values were obtained:
HepG2 [1] = test: Cytotoxicity against Homo sapiens (human) HepG2 cells assessed as cell viability at 12.5 ug/ml after 48 hr by MTT assay; type: functional; details: HepG2, 48 h, read-out: Activity
MCF7 [2] = test: Cytotoxicity against Homo sapiens (human) MCF7 cells assessed as cell viability at 3.125 ug/ml after 48 hr by MTT assay; type: functional; details: MCF7, 48 h, read-out: Activity
MCF7 [3] = test: Cytotoxicity against Homo sapiens (human) MCF7 cells after 48 hr by MTT assay; type: functional, cell-based; details: MCF7, 48 h
[4] = Cytotoxicity against Homo sapiens (human) HCT cells assessed as cell viability at 6.25 ug/ml after 48 hr by MTT assay; type: functional; details: read-out: Activity
HepG2 [5] = test: Cytotoxicity against Homo sapiens (human) HepG2 cells assessed as cell viability at 1.56 ug/ml after 48 hr by MTT assay; type: functional; details: HepG2, 48 h, read-out: Activity
HepG2 [6] = test: Cytotoxicity against Homo sapiens (human) HepG2 cells assessed as cell viability at 25 ug/ml after 48 hr by MTT assay; type: functional; details: HepG2, 48 h, read-out: Activity
MCF7 [7] = test: Cytotoxicity against Homo sapiens (human) MCF7 cells assessed as cell viability at 6.25 ug/ml after 48 hr by MTT assay; type: functional; details: MCF7, 48 h, read-out: Activity
MCF7 [8] = test: Cytotoxicity against Homo sapiens (human) MCF7 cells assessed as cell viability at 50 ug/ml after 48 hr by MTT assay; type: functional; details: MCF7, 48 h, read-out: Activity
[9] = Cytotoxicity against Homo sapiens (human) HCT cells assessed as cell viability at 1.56 ug/ml after 48 hr by MTT assay; type: functional; details: read-out: Activity
HepG2 [10] = test: Cytotoxicity against Homo sapiens (human) HepG2 cells assessed as cell viability at 50 ug/ml after 48 hr by MTT assay; type: functional; details: HepG2, 48 h, read-out: Activity
MCF7 [11] = test: Cytotoxicity against Homo sapiens (human) MCF7 cells assessed as cell viability at 25 ug/ml after 48 hr by MTT assay; type: functional; details: MCF7, 48 h, read-out: Activity
HepG2 [12] = test: Cytotoxicity against Homo sapiens (human) HepG2 cells after 48 hr by MTT assay; type: functional, cell-based; details: HepG2, 48 h
[13] = Cytotoxicity against Homo sapiens (human) HCT cells after 48 hr by MTT assay; type: functional, cell-based
HepG2 [14] = test: Cytotoxicity against Homo sapiens (human) HepG2 cells assessed as cell viability at 3.125 ug/ml after 48 hr by MTT assay; type: functional; details: HepG2, 48 h, read-out: Activity
HepG2 [15] = test: Cytotoxicity against Homo sapiens (human) HepG2 cells assessed as cell viability at 6.25 ug/ml after 48 hr by MTT assay; type: functional; details: HepG2, 48 h, read-out: Activity
[16] = Cytotoxicity against Homo sapiens (human) HCT cells assessed as cell viability at 25 ug/ml after 48 hr by MTT assay; type: functional; details: read-out: Activity
MCF7 [17] = test: Cytotoxicity against Homo sapiens (human) MCF7 cells assessed as cell viability at 1.56 ug/ml after 48 hr by MTT assay; type: functional; details: MCF7, 48 h, read-out: Activity
[18] = Cytotoxicity against Homo sapiens (human) HCT cells assessed as cell viability at 50 ug/ml after 48 hr by MTT assay; type: functional; details: read-out: Activity
[19] = Cytotoxicity against Homo sapiens (human) HCT cells assessed as cell viability at 12.5 ug/ml after 48 hr by MTT assay; type: functional; details: read-out: Activity
MCF7 [20] = test: Cytotoxicity against Homo sapiens (human) MCF7 cells assessed as cell viability at 12.5 ug/ml after 48 hr by MTT assay; type: functional; details: MCF7, 48 h, read-out: Activity
[21] = Cytotoxicity against Homo sapiens (human) HCT cells assessed as cell viability at 3.125 ug/ml after 48 hr by MTT assay; type: functional; details: read-out: Activity

| SMILES | viability at 12.5 µg/mL (HepG2 [1]) [%] | viability at 3.125 µg/mL (MCF7 [2]) [%] | IC50 (MCF7 [3]) [µg/mL] | viability at 6.25 µg/mL [4] [%] | viability at 1.56 µg/mL (HepG2 [5]) [%] | viability at 25 µg/mL (HepG2 [6]) [%] | viability at 6.25 µg/mL (MCF7 [7]) [%] | viability at 50 µg/mL (MCF7 [8]) [%] | viability at 1.56 µg/mL [9] [%] | viability at 50 µg/mL (HepG2 [10]) [%] | viability at 25 µg/mL (MCF7 [11]) [%] | IC50 (HepG2 [12]) [µg/mL] | IC50 [13] [µg/mL] | viability at 3.125 µg/mL (HepG2 [14]) [%] | viability at 6.25 µg/mL (HepG2 [15]) [%] | viability at 25 µg/mL [16] [%] | viability at 1.56 µg/mL (MCF7 [17]) [%] | viability at 50 µg/mL [18] [%] | viability at 12.5 µg/mL [19] [%] | viability at 12.5 µg/mL (MCF7 [20]) [%] | other results |
| --- | --- | --- | --- | --- | --- | --- | --- | --- | --- | --- | --- | --- | --- | --- | --- | --- | --- | --- | --- | --- | --- |
| N#CC1=C(N)Oc2c(ccc3ccc(/C=C/c4ccc(Br)cc4)nc23)C1c1ccc(Cl)cc1 (stereo not drawn) | 39.4 | 73 | 15.9 (≈ 30.9 µM) | 74.9 | 77.9 | 29 | 64.7 | 29.4 | 98 | 25.2 | 41.2 | 7.5 (≈ 14.6 µM) | 10.2 (≈ 19.8 µM) | 64.4 | 53.1 | 30.3 | 80.6 | 22.8 | 41.9 | 53.1 | viability at 3.125 µg/mL [21]: 89.8% |
| CCOC(=O)C1=C(N)Oc2c(ccc3ccc(/C=C/c4ccc(Cl)cc4)nc23)C1c1ccc(Cl)cc1 (stereo not drawn) | 45.6 | 67.8 | 5.5 (≈ 10.6 µM) | 64.1 | 81.9 | 37.9 | 47.2 | 27.2 | 78.6 | 28.1 | 34.6 | 7.9 (≈ 15.3 µM) | 13 (≈ 25.1 µM) | 65.3 | 53 | 20.4 | 78.1 | 14.1 | 54.3 | 41.6 | viability at 3.125 µg/mL [21]: 69.3% |
| CCOC(=O)C1=C(N)Oc2c(ccc3ccc(/C=C/c4ccc(Br)cc4)nc23)C1c1ccc(Cl)cc1 (stereo not drawn) | 36.4 | 57.9 | 5.4 (≈ 9.61 µM) | 48.1 | 72.1 | 22.9 | 45.5 | 25.6 | 72.1 | 14.6 | 31 | 3.1 (≈ 5.52 µM) | 6.1 (≈ 10.9 µM) | 49.6 | 39.3 | 24.7 | 69.4 | 17.6 | 34.4 | 41.6 | viability at 3.125 µg/mL [21]: 66.2% |
| CCOC(=O)C1=C(N)Oc2c(ccc3ccc(/C=C/c4ccc(Br)cc4)nc23)C1c1ccc(Br)cc1 (stereo not drawn) | 42.2 | 45.5 | 2.4 (≈ 3.96 µM) | 62.8 | 79.6 | 36.1 | 31.6 | 13 | 86 | 23.4 | 17.9 | 6.1 (≈ 10.1 µM) | 12.8 (≈ 21.1 µM) | 61 | 48.6 | 31.4 | 62.3 | 26 | 52.2 | 23.8 | viability at 3.125 µg/mL [21]: 76.6% |
| N#CC1=C(N)Oc2c(ccc3ccc(/C=C/c4ccc(F)cc4)nc23)C1c1ccc(Cl)cc1 (stereo not drawn) | 84.6 | 97.9 | 38.6 (≈ 85 µM) | 95.2 | 100 | 78.3 | 91.8 | 28.5 | 100 | 56.4 | 79.4 | > 50 | 43.8 (≈ 96.5 µM) | 98.9 | 96.2 | 62.5 | 99.3 | 41.3 | 86.9 | 86.7 | viability at 3.125 µg/mL [21]: 98.8% |
| CCOC(=O)C1=C(N)Oc2c(ccc3ccc(/C=C/c4ccc(F)cc4)nc23)C1c1ccc(Cl)cc1 (stereo not drawn) | 79.4 | 92.1 | 37.9 (≈ 75.7 µM) | 73.1 | 98.9 | 69 | 84.7 | 34.6 | 98.9 | 45.2 | 61.2 | 47.5 (≈ 94.8 µM) | 26.2 (≈ 52.3 µM) | 96.4 | 85.1 | 51.3 | 98.5 | 19.8 | 69.5 | 73.5 | viability at 3.125 µg/mL [21]: 80.6% |
| CCOC(=O)C1=C(N)Oc2c(ccc3ccc(/C=C/c4ccc(F)cc4)nc23)C1c1ccc(Br)cc1 (stereo not drawn) | 76.4 | 93.9 | 38.4 (≈ 70.4 µM) | 84.9 | 97.1 | 62.9 | 85.5 | 37.6 | 100 | 34.6 | 67 | 37.1 (≈ 68 µM) | 26.1 (≈ 47.9 µM) | 94.6 | 83.3 | 53.7 | 99.3 | 17.4 | 78.7 | 74.6 | viability at 3.125 µg/mL [21]: 98.5% |
| N#CC1=C(N)Oc2c(ccc3ccc(/C=C/c4ccc(Br)cc4)nc23)C1c1ccc(Br)cc1 (stereo not drawn) | 34.1 | 53.1 | 3.9 (≈ 6.97 µM) | 80.5 | 74.3 | 25.7 | 40.6 | 22.4 | 95.7 | 16 | 27.4 | 8.7 (≈ 15.6 µM) | 12.7 (≈ 22.7 µM) | 54.8 | 41.4 | 33.5 | 61.1 | 24 | 51 | 31.7 | viability at 3.125 µg/mL [21]: 90.7% |
